Laboratory results: ChEMBL document CHEMBL1144377, “Oximinoarylsulfonamides as potent HIV protease inhibitors” (Bioorg Med Chem Lett, 2005)

Experiments:
[1] = tested on: Human immunodeficiency virus 1; experiment: Inhibitory concentration against wild type human immunodeficiency virus; format: functional, organism-based
[2] = tested on: Human immunodeficiency virus 1; experiment: Inhibitory concentration against resistant (A17) human immunodeficiency virus; format: functional, organism-based

SMILES | IC50 [1] | IC50 [2]
CC(C)CN(C[C@@H](O)[C@H](Cc1ccccc1)NC(=O)O[C@H]1CCOC1)S(=O)(=O)c1ccc(N)cc1 | 109 nM | 3720 nM
Cc1nc(CN2CCN([C@H](C(=O)N[C@@H](Cc3ccccc3)[C@H](O)CN(CC(C)C)S(=O)(=O)c3ccc(CO)cc3)C(C)C)C2=O)cs1 | 61 nM | 99 nM
CO/N=C\c1ccc(S(=O)(=O)N(CC(C)C)C[C@@H](O)[C@H](Cc2ccccc2)NC(=O)[C@H](C(C)C)N2CCN(Cc3csc(C)n3)C2=O)cc1 | 653 nM | 3010 nM
Cc1nc(CN2CCN([C@H](C(=O)N[C@@H](Cc3ccccc3)[C@H](O)CN(CC(C)C)S(=O)(=O)c3ccc(C(=N)NO)cc3)C(C)C)C2=O)cs1 | 143 nM | 523 nM
Cc1nc(CN2CCN([C@H](C(=O)N[C@@H](Cc3ccccc3)[C@H](O)CN(CC(C)C)S(=O)(=O)c3ccc(/C=N\O)cc3)C(C)C)C2=O)cs1 | 5 nM | 31 nM
Cc1nc(CN2CCN([C@H](C(=O)N[C@@H](Cc3ccccc3)[C@H](O)CN(CC(C)C)S(=O)(=O)c3ccc(C(N)=O)cc3)C(C)C)C2=O)cs1 | 254 nM | 944 nM
Cc1nc(CN2CCN([C@H](C(=O)N[C@@H](Cc3ccccc3)[C@H](O)CN(CC(C)C)S(=O)(=O)c3cccc(/C=N\O)c3)C(C)C)C2=O)cs1 | 16 nM | 222 nM
Cc1nc(CN2CCN([C@H](C(=O)N[C@@H](Cc3ccccc3)[C@H](O)CN(CC(C)C)S(=O)(=O)c3ccc(C#N)cc3)C(C)C)C2=O)cs1 | 148 nM | 1170 nM
Cc1nc(CN2CCN([C@H](C(=O)N[C@@H](Cc3ccccc3)[C@H](O)CN(CC(C)C)S(=O)(=O)c3cccc(CO)c3)C(C)C)C2=O)cs1 | 45 nM | 910 nM
Cc1nc(CN2CCN([C@H](C(=O)N[C@@H](Cc3ccccc3)[C@H](O)CN(CC(C)C)S(=O)(=O)c3ccc(N)cc3)C(C)C)C2=O)cs1 | 31 nM | 311 nM
Cc1nc(CN2CCN([C@H](C(=O)N[C@@H](Cc3ccccc3)[C@H](O)CN(CC(C)C)S(=O)(=O)c3ccc(NS(C)(=O)=O)cc3)C(C)C)C2=O)cs1 | 1190 nM | 10000 nM
CC(=O)Nc1ccc(S(=O)(=O)N(CC(C)C)C[C@@H](O)[C@H](Cc2ccccc2)NC(=O)[C@H](C(C)C)N2CCN(Cc3csc(C)n3)C2=O)cc1 | 312 nM | 1520 nM
Cc1nc(CN2CCN([C@H](C(=O)N[C@@H](Cc3ccccc3)[C@H](O)CN(CC(C)C)S(=O)(=O)c3ccc(C=O)cc3)C(C)C)C2=O)cs1 | 51 nM | 206 nM
Cc1nc(CN2CCN([C@H](C(=O)N[C@@H](Cc3ccccc3)[C@H](O)CN(CC(C)C)S(=O)(=O)c3ccc(C(=O)O)cc3)C(C)C)C2=O)cs1 | 10000 nM | 9440 nM
CC(=O)c1ccc(S(=O)(=O)N(CC(C)C)C[C@@H](O)[C@H](Cc2ccccc2)NC(=O)[C@H](C(C)C)N2CCN(Cc3csc(C)n3)C2=O)cc1 | 39 nM | 680 nM
Cc1nc(CN2CCN([C@H](C(=O)N[C@@H](Cc3ccccc3)[C@H](O)CN(CC(C)C)S(=O)(=O)c3ccc(NC=O)cc3)C(C)C)C2=O)cs1 | 168 nM | 2410 nM
C=Cc1ccc(S(=O)(=O)N(CC(C)C)C[C@@H](O)[C@H](Cc2ccccc2)NC(=O)[C@H](C(C)C)N2CCN(Cc3csc(C)n3)C2=O)cc1 | 101 nM | 957 nM
Cc1cccc(C)c1OCC(=O)N[C@@H](Cc1ccccc1)[C@@H](O)C[C@H](Cc1ccccc1)NC(=O)[C@H](C(C)C)N1CCCNC1=O [LOPINAVIR] |  | 1240 nM
CC(C)c1nc(CN(C)C(=O)N[C@H](C(=O)N[C@@H](Cc2ccccc2)C[C@H](O)[C@H](Cc2ccccc2)NC(=O)OCc2cncs2)C(C)C)cs1 [RITONAVIR] |  | 3440 nM
